From patent publication US9932637B2, “Genetic polymorphisms associated with cardiovascular disorders and drug response, methods of detection and uses thereof” (CELERA CORPORATION, priority 2003, dated 2018)

System: patients with prior myocardial infarction (CARE study)
Assay: CARE: association of SNPs with pravastatin treatment in cardiovascular events prevention (logistic regression, odds ratio pravastatin vs placebo by genotype; Table 8)
Assay type: in vivo, human
Conditions: for Non-fatal MI (def & prob), n/total (%) / Fatal CHD/Definite Non-fatal MI, n/total (%) / Coronary Artery Bypass or Revascularization, n/total (%) / Hosp. for Unstable Angina, n/total (%) / Total Coronary Heart Disease Events, n/total (%) / Fatal/Non-fatal Atherosclerotic CV Disease, n/total (%) / Hosp. for Cardiovascular Disease, n/total (%) / Total Cardiovascular Disease Events, n/total (%) / Prava vs. Placebo Odds Ratio, 0 Rare Alleles / Prava vs. Placebo Odds Ratio, 1 Rare Alleles / Cardiovascular Mortality, n/total (%) / Fatal Atherosclerotic Cardiovascular Disease, n/total (%) / Fatal/Non-fatal MI (def & prob), n/total (%): All Patients; for Non-fatal MI (def & prob), n/total (%) / Fatal CHD/Definite Non-fatal MI, n/total (%) / Coronary Artery Bypass or Revascularization, n/total (%) / Hosp. for Unstable Angina, n/total (%) / Total Coronary Heart Disease Events, n/total (%) / Fatal/Non-fatal Atherosclerotic CV Disease, n/total (%) / Hosp. for Cardiovascular Disease, n/total (%) / Total Cardiovascular Disease Events, n/total (%) / Cardiovascular Mortality, n/total (%) / Fatal Atherosclerotic Cardiovascular Disease, n/total (%) / Fatal/Non-fatal MI (def & prob), n/total (%): Prava
From the text: In order to identify genetic markers associated with acute coronary events (e.g. MI, stroke, unstable angina, congestive heart failure, etc.) or response to statin treatment for the prevention of coronary events, samples from the Cholesterol and Recurrent Events (CARE) study (a randomized multicentral double-blinded trial on secondary prevention of acute coronary events with pravastatin) (Sacks et al., 1991, Am. J. Cardiol. 68: 1436-1446) were genotyped. A well-documented myocardial infarction (MI) was one of the enrollment criteria for entry into the CARE study. Patients were enrolled in the CARE trial from 80 participating study centers. […] Patients were randomized to receive either 40 mg of pravastatin once daily or a matching placebo. The primary endpoint of the trial was death from coronary heart disease and the median duration of follow-up was 5.0 years (range, 4.0 to 6.2 years). […] Secondary endpoints of other related cardiovascular or metabolic disease events, and changes in clinical variables were also recorded in pravastatin-treated and placebo groups. All individuals included in the study had signed a written informed consent form and the study protocol was approved by the respective Institutional Review Boards (IRBs).
For genotyping SNPs in CARE patient samples, DNA was extracted from blood samples using conventional DNA extraction methods such as the QIA-amp kit from Qiagen. Genotypes were obtained on an ABI PRISM® 7900HT Sequence Detection PCR system (Applied Biosystems, Foster City, Calif.) by kinetic allele-specific PCR, similar to the method described by Germer et al. (Germer S., Holland M. J., Higuchi R. 2000, Genome Res. 10: 258-266).
Statistical analysis for association of SNPs with pravastatin treatment in cardiovascular events prevention (Table 8) was carried out using an overall logistic regression model that included an intercept, a parameter for the effect of a genotype containing two rare alleles versus a genotype containing no rare alleles, a parameter for the effect of a genotype containing one rare allele versus a genotype containing no rare alleles, a parameter for the effect of use of pravastatin versus the use of placebo, and parameters for the interaction effects between SNP genotypes and pravastatin use. The test of the overall model is a chi-square test with two degrees of freedom for analyses containing all three genotypes, and one degree of freedom for analyses containing two genotypes.
Effect sizes were estimated through odds ratios (pravastatin group versus placebo) for carriers of each genotype (groups of 0, 1, and 2 minor allele carriers). The effect was considered to be significant if p-value for testing whether any of the interactions between SNP genotypes and pravastatin use were <0.05. […] Odds ratios less than one indicate that the specific SNP allele has a protective effect and odds ratios greater than one indicate that the specific SNP allele has an adverse effect.

[1] = CR1 hCV25598594, 2 Rare Alleles, n/total 0/0
[2] = CR1 hCV25598594, Coronary Artery Bypass or Revascularization
[3] = CR1 hCV25598594, Fatal CHD/Definite Non-fatal MI
[4] = CR1 hCV25598594, Fatal/Non-fatal Atherosclerotic CV Disease
[5] = CR1 hCV25598594, Hosp. for Cardiovascular Disease
[6] = CR1 hCV25598594, Hosp. for Unstable Angina
[7] = CR1 hCV25598594, Non-fatal MI (def & prob)
[8] = CR1 hCV25598594, Total Cardiovascular Disease Events
[9] = CR1 hCV25598594, Total Coronary Heart Disease Events
[10] = CXCL16 hCV8718197, 0 Rare Alleles, n/total 12/468

## CC[C@H](C)C(=O)O[C@H]1C[C@H](O)C=C2C=C[C@H](C)[C@H](CC[C@@H](O)C[C@@H](O)CC(=O)O)[C@H]21 [pravastatin]
COL11A1 hCV8400671, All Patients, 2 Rare Alleles, Prava arm
  Nonfatal MI (def & prob), n/total (%): (4.1%)
CR1 hCV25598594, 0 Rare Alleles, n/total 132/1445
  Non-fatal MI (def & prob), n/total (%): (9.1%)
CR1 hCV25598594, 0 Rare Alleles, n/total 139/1445
  Fatal CHD/Definite Non-fatal MI, n/total (%): (9.6%)
CR1 hCV25598594, 0 Rare Alleles, n/total 212/1445
  Coronary Artery Bypass or Revascularization, n/total (%): (14.7%)
CR1 hCV25598594, 0 Rare Alleles, n/total 223/1445
  Hosp. for Unstable Angina, n/total (%): (15.4%)
CR1 hCV25598594, 0 Rare Alleles, n/total 431/1445
  Total Coronary Heart Disease Events, n/total (%): (29.8%)
CR1 hCV25598594, 0 Rare Alleles, n/total 491/1445
  Fatal/Non-fatal Atherosclerotic CV Disease, n/total (%): (34.0%)
CR1 hCV25598594, 0 Rare Alleles, n/total 586/1445
  Hosp. for Cardiovascular Disease, n/total (%): (40.6%)
CR1 hCV25598594, 0 Rare Alleles, n/total 603/1445
  Total Cardiovascular Disease Events, n/total (%): (41.7%)
CR1 hCV25598594, 1 Rare Allele, n/total 1/72
  Fatal CHD/Definite Non-fatal MI, n/total (%): (1.4%)
CR1 hCV25598594, 1 Rare Allele, n/total 2/72
  Non-fatal MI (def & prob), n/total (%): (2.8%)
CR1 hCV25598594, 1 Rare Allele, n/total 7/72
  Coronary Artery Bypass or Revascularization, n/total (%): (9.7%)
CR1 hCV25598594, 1 Rare Allele, n/total 8/72
  Hosp. for Unstable Angina, n/total (%): (11.1%)
CR1 hCV25598594, 1 Rare Allele, n/total 11/72
  Total Coronary Heart Disease Events, n/total (%): (15.3%)
CR1 hCV25598594, 1 Rare Allele, n/total 15/72
  Fatal/Non-fatal Atherosclerotic CV Disease, n/total (%): (20.8%)
CR1 hCV25598594, 1 Rare Allele, n/total 23/72
  Hosp. for Cardiovascular Disease, n/total (%): (31.9%)
CR1 hCV25598594, 1 Rare Allele, n/total 24/72
  Total Cardiovascular Disease Events, n/total (%): (33.3%)
[1]
  Coronary Artery Bypass or Revascularization, n/total (%): (0.0%)
  Fatal CHD/Definite Non-fatal MI, n/total (%): (0.0%)
  Fatal/Non-fatal Atherosclerotic CV Disease, n/total (%): (0.0%)
  Hosp. for Cardiovascular Disease, n/total (%): (0.0%)
  Hosp. for Unstable Angina, n/total (%): (0.0%)
  Non-fatal MI (def & prob), n/total (%): (0.0%)
  Total Cardiovascular Disease Events, n/total (%): (0.0%)
  Total Coronary Heart Disease Events, n/total (%): (0.0%)
[2]
  Prava vs. Placebo Odds Ratio, 0 Rare Alleles: 0.74
  Prava vs. Placebo Odds Ratio, 1 Rare Alleles: 0.23
[3]
  Prava vs. Placebo Odds Ratio, 0 Rare Alleles: 0.76
  Prava vs. Placebo Odds Ratio, 1 Rare Alleles: 0.06
[4]
  Prava vs. Placebo Odds Ratio, 0 Rare Alleles: 0.81
  Prava vs. Placebo Odds Ratio, 1 Rare Alleles: 0.25
[5]
  Prava vs. Placebo Odds Ratio, 0 Rare Alleles: 0.79
  Prava vs. Placebo Odds Ratio, 1 Rare Alleles: 0.33
[6]
  Prava vs. Placebo Odds Ratio, 0 Rare Alleles: 0.87
  Prava vs. Placebo Odds Ratio, 1 Rare Alleles: 0.31
[7]
  Prava vs. Placebo Odds Ratio, 0 Rare Alleles: 0.74
  Prava vs. Placebo Odds Ratio, 1 Rare Alleles: 0.12
[8]
  Prava vs. Placebo Odds Ratio, 0 Rare Alleles: 0.78
  Prava vs. Placebo Odds Ratio, 1 Rare Alleles: 0.33
[9]
  Prava vs. Placebo Odds Ratio, 0 Rare Alleles: 0.81
  Prava vs. Placebo Odds Ratio, 1 Rare Alleles: 0.22
[10]
  Cardiovascular Mortality, n/total (%): (2.6%)
  Fatal Atherosclerotic Cardiovascular Disease, n/total (%): (2.6%)
CXCL16 hCV8718197, 0 Rare Alleles, n/total 33/468
  Fatal/Non-fatal MI (def & prob), n/total (%): (7.1%)
CXCL16 hCV8718197, 0 Rare Alleles, n/total 36/468
  Fatal CHD/Definite Non-fatal MI, n/total (%): (7.7%)
CXCL16 hCV8718197, 0 Rare Alleles, n/total 56/468
  Coronary Artery Bypass or Revascularization, n/total (%): (12.0%)
CXCL16 hCV8718197, 0 Rare Alleles, n/total 125/468
  Total Coronary Heart Disease Events, n/total (%): (26.7%)
CXCL16 hCV8718197, 0 Rare Alleles, n/total 177/468
  Hosp. for Cardiovascular Disease, n/total (%): (37.8%)
CXCL16 hCV8718197, 0 Rare Alleles, n/total 180/468
  Total Cardiovascular Disease Events, n/total (%): (38.5%)
CXCL16 hCV8718197, 1 Rare Allele, n/total 23/742
  Fatal Atherosclerotic Cardiovascular Disease, n/total (%): (3.1%)
CXCL16 hCV8718197, 1 Rare Allele, n/total 24/742
  Cardiovascular Mortality, n/total (%): (3.2%)
CXCL16 hCV8718197, 1 Rare Allele, n/total 68/742
  Fatal CHD/Definite Non-fatal MI, n/total (%): (9.2%)
CXCL16 hCV8718197, 1 Rare Allele, n/total 75/742
  Fatal/Non-fatal MI (def & prob), n/total (%): (10.1%)
CXCL16 hCV8718197, 1 Rare Allele, n/total 119/742
  Coronary Artery Bypass or Revascularization, n/total (%): (16.0%)
CXCL16 hCV8718197, 1 Rare Allele, n/total 220/742
  Total Coronary Heart Disease Events, n/total (%): (29.6%)
CXCL16 hCV8718197, 1 Rare Allele, n/total 305/742
  Hosp. for Cardiovascular Disease, n/total (%): (41.1%)
CXCL16 hCV8718197, 1 Rare Allele, n/total 314/742
  Total Cardiovascular Disease Events, n/total (%): (42.3%)
CXCL16 hCV8718197, 2 Rare Alleles, n/total 19/292
  Cardiovascular Mortality, n/total (%): (6.5%)
